{"source": "patent US20080096894A1", "about": "“Anti-Bacterial Compounds” (ASTON UNIVERSITY, priority 2005, published 2008)", "test_in_all_cases": "MIC, agar dilution, multipoint inoculator", "key": {"MRSA": {"test_system": "MRSA", "type": "cell-based, methicillin-resistant Staphylococcus aureus", "conditions": "for MRSA MIC range: panel of ten MRSA strains (clinical isolates); for MIC: upper value of MIC reading, in µg/mL", "method": "(§1) This activity was measured using a multipoint inoculator method as follows. The MIC for each compound was measured using an agar dilution method (Onda, H., et al., Int. J. Antimicrob. Agents. 18, 263 (2001)) (Mueller Hinton agar) by means of a multipoint inoculator delivering 10^4 colony forming units per spot.\n‘Staph’ refers to the reference strain of S. aureus (NCTC 6571). A tick in the MRSA column refers to a positive zone against MRSA strain 96-7474, and the MIC range (in μg/ml) which follows is that found against a panel of ten MRSA strains. Where MIC values are given for MRSA, these are stated as a range of values, as testing was carried out on a panel of clinical isolates."}, "E. faecium": {"test_system": "E. faecium", "type": "cell-based, Enterococcus faecium", "conditions": "upper value of MIC reading", "method": "as §1"}, "E. faecalis": {"test_system": "E. faecalis", "type": "cell-based", "conditions": "upper value of MIC reading", "method": "as §1"}, "S. aureus": {"test_system": "S. aureus", "type": "cell-based, Staphylococcus aureus", "conditions": "upper value of MIC reading", "method": "as §1"}, "S. epidemisis": {"test_system": "S. epidemisis", "type": "cell-based, Staphylococcus epidermidis", "conditions": "S. epidemisis Isolate 1; upper value of MIC reading", "method": "as §1"}}, "data": [{"smiles": "NC(=NN=Cc1cc(O)c(O)cc1O)c1ccncc1", "note": "[Compound 4PYcc]", "values": [{"measurement": "MRSA MIC range", "setting": "MRSA", "value": "20 to 30", "unit": "µg/mL"}]}, {"smiles": "NC(=NN=Cc1cc(I)cc(I)c1O)c1ccncc1", "note": "[Compound 4PYco]", "values": [{"measurement": "MRSA MIC range", "setting": "MRSA", "value": "10 to 20", "unit": "µg/mL"}]}, {"smiles": "CN(C)c1ccc(C=NN=C(N)c2ccccn2)cc1", "note": "[Compound 2PYdq]", "values": [{"measurement": "MRSA MIC range", "setting": "MRSA", "value": "128 to 256", "unit": "µg/mL"}]}, {"smiles": "NC(=NN=Cc1cccc(Cl)c1)c1ccccn1", "note": "[Compound 2PYdg]", "values": [{"measurement": "MRSA MIC range", "setting": "MRSA", "value": "64 to 128", "unit": "µg/mL"}]}, {"smiles": "NC(=NN=Cc1ccc(O)c(O)c1O)c1ccncc1", "note": "[Compound 4PYcb]", "values": [{"measurement": "MRSA MIC range", "setting": "MRSA", "value": "30 to 40", "unit": "µg/mL"}]}, {"smiles": "COc1ccc(C=NNc2ccccn2)c(O)c1", "note": "[HDcf]", "values": [{"measurement": "MRSA MIC range", "setting": "MRSA", "value": "20 to 30", "unit": "µg/mL"}]}, {"smiles": "NC(=NN=Cc1cc(Br)cc([N+](=O)[O-])c1O)c1ccccn1", "note": "[Compound 2PYcl]", "values": [{"measurement": "MIC", "setting": "E. faecium; E. faecium ACTCC 10541", "value": 128, "unit": "µg/mL"}, {"measurement": "MIC", "setting": "E. faecium; E. faecium NCTC 7171", "value": 256, "unit": "µg/mL"}, {"measurement": "MIC", "setting": "E. faecalis; E. faecalis EBH1", "value": 256, "unit": "µg/mL"}, {"measurement": "MIC", "setting": "E. faecalis; E. faecalis NCTC 5957", "value": 256, "unit": "µg/mL"}, {"measurement": "MIC", "setting": "S. aureus; S. aureus Cowan 1", "value": 64, "unit": "µg/mL"}, {"measurement": "MIC", "setting": "S. aureus; S. aureus NCTC 6571", "value": 32, "unit": "µg/mL"}, {"measurement": "MIC", "setting": "S. aureus; S. aureus NCTC 10788", "value": 32, "unit": "µg/mL"}, {"measurement": "MIC", "setting": "MRSA; MRSA Isolate 1", "value": 64}, {"measurement": "MIC", "setting": "MRSA; MRSA Isolate 2", "value": 64}, {"measurement": "MIC", "setting": "MRSA; MRSA Isolate 3", "value": 64}, {"measurement": "MIC", "setting": "MRSA; MRSA Isolate 4", "value": 32}, {"measurement": "MIC", "setting": "MRSA; MRSA Isolate 5", "value": 32}, {"measurement": "MIC", "setting": "MRSA; MRSA Isolate 6", "value": 64}, {"measurement": "MIC", "setting": "MRSA; MRSA Isolate 7", "value": 64}, {"measurement": "MIC", "setting": "MRSA; MRSA Isolate 8", "value": 64}, {"measurement": "MIC", "setting": "MRSA; MRSA Isolate 9", "value": 64}, {"measurement": "MIC", "setting": "MRSA; MRSA Isolate 10", "value": 64}]}, {"smiles": "Cc1cccc(C=NN=C(N)c2ccccn2)c1", "note": "[Compound 2PYaj]", "values": [{"measurement": "MRSA MIC range", "setting": "MRSA", "value": "128 to 256", "unit": "µg/mL"}]}, {"smiles": "Cc1ccccc1C=NN=C(N)c1ccccn1", "note": "[Compound 2PYah]", "values": [{"measurement": "MRSA MIC range", "setting": "MRSA", "value": "128 to 256", "unit": "µg/mL"}]}, {"smiles": "CC(C)(C)c1cc(C=NN=C(N)c2ccncc2)cc(C(C)(C)C)c1O", "note": "[Compound 4PYcr]", "values": [{"measurement": "MIC", "setting": "S. aureus; S. aureus NCTC 6571", "value": "> 256", "unit": "µg/mL"}, {"measurement": "MIC", "setting": "MRSA; MRSA Isolate 3", "value": ">256"}, {"measurement": "MRSA MIC range", "setting": "MRSA", "value": "> 256", "unit": "µg/mL"}]}, {"smiles": "CC(C)(C)[Si](C)(C)Oc1ccccc1/C=N/N=C(\\N)c1cnccn1", "note": "[PZeg]", "values": [{"measurement": "MRSA MIC range", "setting": "MRSA", "value": "> 256", "unit": "µg/mL"}]}, {"smiles": "CCc1ccccc1C=NN=C(N)c1ccccn1", "note": "[Compound 2PYai]", "values": [{"measurement": "MRSA MIC range", "setting": "MRSA", "value": "128 to 256", "unit": "µg/mL"}]}, {"smiles": "NC(=NN=Cc1cc([N+](=O)[O-])ccc1O)c1ccncc1", "note": "[Compound 4PYcj]", "values": [{"measurement": "MRSA MIC range", "setting": "MRSA", "value": "20 to 30", "unit": "µg/mL"}]}, {"smiles": "NC(=NN=Cc1cc([N+](=O)[O-])ccc1O)c1cnccn1", "note": "[PZcj]", "values": [{"measurement": "MIC", "setting": "E. faecalis; E. faecalis Isolate 3", "value": 256, "unit": "µg/mL"}, {"measurement": "MIC", "setting": "S. aureus; S. aureus Cowan 1", "value": 256, "unit": "µg/mL"}, {"measurement": "MIC", "setting": "S. aureus; S. aureus NCTC 6571", "value": 16, "unit": "µg/mL"}, {"measurement": "MIC", "setting": "S. aureus; S. aureus NCTC 10788", "value": 16, "unit": "µg/mL"}, {"measurement": "MIC", "setting": "MRSA; MRSA Isolate 1", "value": 8}, {"measurement": "MIC", "setting": "MRSA; MRSA Isolate 2", "value": 8}, {"measurement": "MIC", "setting": "MRSA; MRSA Isolate 3", "value": 4}, {"measurement": "MIC", "setting": "MRSA; MRSA Isolate 4", "value": 4}, {"measurement": "MIC", "setting": "MRSA; MRSA Isolate 5", "value": 16}, {"measurement": "MIC", "setting": "MRSA; MRSA Isolate 6", "value": 16}, {"measurement": "MIC", "setting": "MRSA; MRSA Isolate 7", "value": 16}, {"measurement": "MIC", "setting": "MRSA; MRSA Isolate 8", "value": 16}, {"measurement": "MIC", "setting": "MRSA; MRSA Isolate 9", "value": 16}, {"measurement": "MIC", "setting": "MRSA; MRSA Isolate 10", "value": 16}, {"measurement": "MRSA MIC range", "setting": "MRSA", "value": "4 to 16", "unit": "µg/mL"}, {"measurement": "MIC", "setting": "S. epidemisis", "value": 256, "unit": "µg/mL"}]}, {"smiles": "O=Cc1cc(Br)cc([N+](=O)[O-])c1O", "note": "[cl]", "values": [{"measurement": "MIC", "setting": "S. aureus; S. aureus Cowan 1", "value": 32, "unit": "µg/mL"}, {"measurement": "MIC", "setting": "S. aureus; S. aureus NCTC 6571", "value": 16, "unit": "µg/mL"}, {"measurement": "MIC", "setting": "S. aureus; S. aureus NCTC 10788", "value": 16, "unit": "µg/mL"}, {"measurement": "MIC", "setting": "MRSA; MRSA Isolate 1", "value": 16}, {"measurement": "MIC", "setting": "MRSA; MRSA Isolate 2", "value": 16}, {"measurement": "MIC", "setting": "MRSA; MRSA Isolate 3", "value": 32}, {"measurement": "MIC", "setting": "MRSA; MRSA Isolate 4", "value": 16}, {"measurement": "MIC", "setting": "MRSA; MRSA Isolate 5", "value": 16}, {"measurement": "MIC", "setting": "MRSA; MRSA Isolate 6", "value": 32}, {"measurement": "MIC", "setting": "MRSA; MRSA Isolate 7", "value": 32}, {"measurement": "MIC", "setting": "MRSA; MRSA Isolate 8", "value": 32}, {"measurement": "MIC", "setting": "MRSA; MRSA Isolate 9", "value": 32}]}, {"smiles": "NC(=NN=Cc1c(O)ccc2ccccc12)c1ccccn1", "note": "[Compound 2PYdb]", "values": [{"measurement": "MIC", "setting": "S. aureus; S. aureus NCTC 6571", "value": "> 256", "unit": "µg/mL"}, {"measurement": "MIC", "setting": "MRSA; MRSA Isolate 3", "value": ">256"}, {"measurement": "MRSA MIC range", "setting": "MRSA", "value": "> 256", "unit": "µg/mL"}]}]}
